Test results taken from patent publication US6866861B1, “Method and composition for enhancing milk component concentrations” (Land O'Lakes, Inc., priority 1999, dated 2005).

Test system: cows
Experiment: Abomasal infusion of sorbitol in cows, repeat trial with different cows (Example 3)
Type: in vivo, cow
Conditions: for Fat / Lactose / Non-Protein Nitrogen / Total Solids / True Protein: 100 g/cow/day abomasal, 3 cows
Experimental: To determine the weight percent total solids, wet basis, in a sample, the actual weight of total solids is determined by analyzing the sample in accordance with Method #925.23 (33.2.09) of Official Methods of Analysis, Association of Official Analytical Chemists (AOAC) (16th Ed., 1995). The weight percent total solids, wet basis, is then calculated by dividing the actual weight of total solids by the actual weight of the sample. The weight percent of true protein, wet basis, for a particular sample is calculated after first determining the wet basis weight percent of total Kjeldahl nitrogen and the wet basis weight percent of non-protein nitrogen in the sample. The wet basis weight percent of total Kjeldahl nitrogen in the sample is determined using the method referenced above. The wet basis weight percent of non-protein nitrogen (NPN) in the sample is determined in accordance with Method #991.21 (33.2.12) of Official Methods of Analysis, Association of Official Analytical Chemists (AOAC) (16th Ed., 1995). The weight percent of true protein, wet basis, in the sample is then determined by subtracting the wet basis weight percent of non-protein nitrogen in the sample from the wet basis weight percent of total Kjeldahl nitrogen in the sample. To determine the weight percent lactose, wet basis, in a liquid sample, the weight of the liquid sample is first determined. The actual weight of lactose in the liquid sample may then be determined using analysis kit number 176-303, that is available from Boehringer-Mannheim of Indianapolis, Ind. in accordance with the procedural instructions included with analysis kit number 176-303. The weight percent lactose, wet basis, in the liquid sample is then calculated by dividing the actual weight of lactose in the liquid sample by the actual weight of the liquid sample. To determine the weight percent fat, wet basis, in a sample, the actual weight of fat in the sample is determined in accordance with Method #974.09 (33.7.18) of Official Methods of Analysis, Association of Official Analytical Chemists (AOAC) (16th Ed., 1995). The weight percent fat, wet basis, is then calculated by dividing the actual weight of fat in the sample by the actual weight of the sample. In this example, sorbitol was abomasally infused into three different cows at a rate of 100 grams of sorbitol per cow per day during a 14 day test period. The sorbitol rations were mixed with water to facilitate infusion. The rations provided to the cows during the period extending from day 0, prior to abomasal infusion of sorbitol, through day 14 of the test period were the same. The only difference in feeding of the cows between day 0 and days 1-14 of the test period were that during days 1-14 the cows were abomasally infused with the dosage of 100 grams of sorbitol per cow per day. Milk from the three cows was collected and analyzed prior to infusion (on day 0) and also was collected and analyzed on the third, seventh and fourteenth day of the test period. The results presented in Table 2 below for each milk component for each particular day are averages for the milk collected from the three different cows. The trial of Example 2 was repeated in Example 3 several months later using three different cows. All of the test conditions described above for Example 2 were repeated in Example 3, with the exception of use of different cows. The results of the second trial are listed in Table 3 below: The net change for the different milk components presented in Table 3 was calculated by averaging the results of days 3, 7 and 14 for a particular milk component and subtracting the results presented for day 0 for the particular milk component. The results of Table 3 illustrate that, on average, the abomasal infusion of sorbitol caused a net increase in the amount of fat and total solids in the milk of the test cattle. […]

[1] = milk, average of days 3, 7, 14 minus day 0

## OC[C@@H](O)[C@@H](O)[C@H](O)[C@@H](O)CO [sorbitol]
Abomasal infusion, 14 day test period, on average
  amount of fat and total solids in the milk (conclusion in words): net increase
milk, Day 3
  Fat: 4.22 Wt %
  Lactose: 4.80 Wt. %
  Non-Protein Nitrogen: 0.23 Wt. %
  Total Solids: 12.95 Wt. %
  True Protein: 3.21 Wt. %
milk, Day 7
  Fat: 3.53 Wt %
  Lactose: 5.12 Wt. %
  Non-Protein Nitrogen: 0.27 Wt. %
  Total Solids: 12.26 Wt. %
  True Protein: 2.89 Wt. %
milk, Day 14
  Fat: 3.81 Wt %
  Lactose: 5.80 Wt. %
  Non-Protein Nitrogen: 0.23 Wt. %
  Total Solids: 12.55 Wt. %
  True Protein: 3.22 Wt. %
[1]
  Fat, Net Change: +0.38 Wt %
  Lactose, Net Change: +0.39 Wt. %
  Non-Protein Nitrogen, Net Change: no net change
  Total Solids, Net Change: +0.41 Wt. %
  True Protein, Net Change: −0.03 Wt. %
milk, days 3 and 14 versus day 0
  increase of true protein content if the results of day 7 were eliminated from the net change: about 0.08 weight percent
